Where “and” joins values, the source holds several entries; their conditions need not be identical. Equal entries are not always repeated.
Legend:
[1] = tested on: human primary hepatocytes; assay: Metabolic disposition of [^14C]-Compound 1 and [^14C]-2′-C-methyl guanosine in human primary hepatocytes (incubation medium, cellular extracts, nucleotide levels); format: in vitro ADME
How it was run: (§1)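 Rat, monkey or human primary hepatocytes on collagen I plates (1.6 million cells/mL) were incubated at 37° C with 1 or 10 μM C-8 [^14C]-labelled compound or 2′-C-methyl guanosine for 1, 4, 8 and 24 hours. Medium and 70% methanol cell extracts were analysed by LSC and radio-HPLC. Nucleotides were identified by alkaline phosphatase treatment and retention-time matching to standards.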

[2] = tested on: monkey primary hepatocytes; assay: Metabolic disposition of [^14C]-Compound 1 and [^14C]-2′-C-methyl guanosine in monkey primary hepatocytes (incubation medium, cellular extracts, nucleotide levels); format: in vitro ADME, Cynomolgus monkey
How it was run: as §1

[3] = human hepatocytes (Hu775), 1 μM [^14C]-Compound 1, 1 h
[4] = human hepatocytes (Hu775), 1 μM [^14C]-Compound 1, 8 h
[5] = human hepatocytes (Hu775), 1 μM [^14C]-Compound 1, 24 h
[6] = human hepatocytes Hu775, 1 μM [^14C]-2′-C-methyl guanosine, 1 h
[7] = human hepatocytes Hu775, 1 μM [^14C]-2′-C-methyl guanosine, 8 h
[8] = human hepatocytes Hu775, 1 μM [^14C]-2′-C-methyl guanosine, 24 h
[9] = monkey hepatocytes (Cy234), 10 μM [^14C]-Compound 1, 4 h
[10] = monkey hepatocytes Cy230, 10 μM [^14C]-2′-C-methyl guanosine, 1 h
[11] = monkey hepatocytes Cy230, 10 μM [^14C]-2′-C-methyl guanosine, 8 h
[12] = monkey hepatocytes Cy230, 10 μM [^14C]-2′-C-methyl guanosine, 24 h
[13] = monkey hepatocytes Cy234, 10 μM [^14C]-2′-C-methyl guanosine, 1 h
[14] = monkey hepatocytes Cy234, 10 μM [^14C]-2′-C-methyl guanosine, 4 h
[15] = monkey hepatocytes Cy234, 10 μM [^14C]-2′-C-methyl guanosine, 8 h
[16] = monkey hepatocytes Cy234, 10 μM [^14C]-2′-C-methyl guanosine, 24 h

C[C@@]1(O)[C@H](O)[C@@H](COP(=O)(O)OP(=O)(O)O)O[C@H]1n1cnc2c(=O)[nH]c(N)nc21 [Compound 6, [(2R)-2-methyl-β-D-ribofuranosyl]guanine 5′-diphosphate]
metabolites observed in cellular extracts (% of total radioactivity) ([1]; human hepatocytes (Hu759, Hu775), 10 μM [^14C]-2′-C-methyl guanosine, 1 h): 0.51% and 0.63% | metabolites observed in cellular extracts (% of total radioactivity) ([1]; human hepatocytes (Hu759, Hu775), 10 μM [^14C]-2′-C-methyl guanosine, 4 h): 1.64% and 2.36% | metabolites observed in cellular extracts (% of total radioactivity) ([1]; human hepatocytes (Hu759, Hu775), 10 μM [^14C]-2′-C-methyl guanosine, 8 h): 4.54% and 3.46% | metabolites observed in cellular extracts (% of total radioactivity) ([1]; human hepatocytes (Hu759, Hu775), 10 μM [^14C]-2′-C-methyl guanosine, 24 h): 7.71% and 10.6% | metabolites observed in cellular extracts (% of total radioactivity) ([1]; human hepatocytes (Hu759, Hu775), 10 μM [^14C]-Compound 1, 1 h): 4.93% and 6.09% | metabolites observed in cellular extracts (% of total radioactivity) ([1]; human hepatocytes (Hu759, Hu775), 10 μM [^14C]-Compound 1, 4 h): 8.01% and 12.4% | metabolites observed in cellular extracts (% of total radioactivity) ([1]; human hepatocytes (Hu759, Hu775), 10 μM [^14C]-Compound 1, 8 h): 13.99% and 11.1% | metabolites observed in cellular extracts (% of total radioactivity) ([1]; human hepatocytes (Hu759, Hu775), 10 μM [^14C]-Compound 1, 24 h): 13.4% and 17.05% | 2′-C-methyl guanosine nucleotide levels in cellular extracts ([1]; human hepatocytes (Hu775), 1 μM [^14C]-Compound 1, 0 h): BLD (BLD = below limit of detection (0.02 pmol/million cells)) | 2′-C-methyl guanosine nucleotide levels in cellular extracts [1, 3]: 1.40 pmol/million cells | metabolites observed in cellular extracts (% of total radioactivity) [1, 3]: 7.94% | 2′-C-methyl guanosine nucleotide levels in cellular extracts [1, 4]: 7.70 pmol/million cells | metabolites observed in cellular extracts (% of total radioactivity) [1, 4]: 13.0% | 2′-C-methyl guanosine nucleotide levels in cellular extracts [1, 5]: 11.2 pmol/million cells | metabolites observed in cellular extracts (% of total radioactivity) [1, 5]: 12.4% | 2′-C-methyl guanosine nucleotide levels in cellular extracts ([1]; human hepatocytes Hu759, 10 μM [^14C]-2′-C-methyl guanosine, 0 h): 0 pmol/million cells | 2′-C-methyl guanosine nucleotide levels in cellular extracts ([1]; human hepatocytes Hu759, 10 μM [^14C]-2′-C-methyl guanosine, 1 h): 2.10 pmol/million cells | 2′-C-methyl guanosine nucleotide levels in cellular extracts ([1]; human hepatocytes Hu759, 10 μM [^14C]-2′-C-methyl guanosine, 4 h): 7.50 pmol/million cells | 2′-C-methyl guanosine nucleotide levels in cellular extracts ([1]; human hepatocytes Hu759, 10 μM [^14C]-2′-C-methyl guanosine, 8 h): 22.1 pmol/million cells | 2′-C-methyl guanosine nucleotide levels in cellular extracts ([1]; human hepatocytes Hu759, 10 μM [^14C]-2′-C-methyl guanosine, 24 h): 46.0 pmol/million cells | 2′-C-methyl guanosine nucleotide levels in cellular extracts ([1]; human hepatocytes Hu759, 10 μM [^14C]-Compound 1, 0 h): 0 pmol/million cells | 2′-C-methyl guanosine nucleotide levels in cellular extracts ([1]; human hepatocytes Hu759, 10 μM [^14C]-Compound 1, 1 h): 3.00 pmol/million cells | 2′-C-methyl guanosine nucleotide levels in cellular extracts ([1]; human hepatocytes Hu759, 10 μM [^14C]-Compound 1, 4 h): 21.0 pmol/million cells | 2′-C-methyl guanosine nucleotide levels in cellular extracts ([1]; human hepatocytes Hu759, 10 μM [^14C]-Compound 1, 8 h): 45.0 pmol/million cells | 2′-C-methyl guanosine nucleotide levels in cellular extracts ([1]; human hepatocytes Hu759, 10 μM [^14C]-Compound 1, 24 h): 69.0 pmol/million cells | 2′-C-methyl guanosine nucleotide levels in cellular extracts ([1]; human hepatocytes Hu775, 1 μM [^14C]-2′-C-methyl guanosine, 0 h): BLD (BLD = below limit of detection (0.02 pmol/million cells)) | 2′-C-methyl guanosine nucleotide levels in cellular extracts [1, 6]: BLD (BLD = below limit of detection (0.02 pmol/million cells)) | Major metabolites observed in cellular extracts (% of total radioactivity) [1, 6]: BLD (BLD = below limit of detection (30 DPM)) | 2′-C-methyl guanosine nucleotide levels in cellular extracts [1, 7]: 2.70 pmol/million cells | Major metabolites observed in cellular extracts (% of total radioactivity) [1, 7]: 6.83 % of total radioactivity | 2′-C-methyl guanosine nucleotide levels in cellular extracts [1, 8]: 4.00 pmol/million cells | Major metabolites observed in cellular extracts (% of total radioactivity) [1, 8]: 9.04 % of total radioactivity | 2′-C-methyl guanosine nucleotide levels in cellular extracts ([1]; human hepatocytes Hu775, 10 μM [^14C]-2′-C-methyl guanosine, 0 h): 0 pmol/million cells | 2′-C-methyl guanosine nucleotide levels in cellular extracts ([1]; human hepatocytes Hu775, 10 μM [^14C]-2′-C-methyl guanosine, 1 h): 2.90 pmol/million cells | 2′-C-methyl guanosine nucleotide levels in cellular extracts ([1]; human hepatocytes Hu775, 10 μM [^14C]-2′-C-methyl guanosine, 4 h): 10.5 pmol/million cells | 2′-C-methyl guanosine nucleotide levels in cellular extracts ([1]; human hepatocytes Hu775, 10 μM [^14C]-2′-C-methyl guanosine, 8 h): 15.0 pmol/million cells | 2′-C-methyl guanosine nucleotide levels in cellular extracts ([1]; human hepatocytes Hu775, 10 μM [^14C]-2′-C-methyl guanosine, 24 h): 50.0 pmol/million cells | 2′-C-methyl guanosine nucleotide levels in cellular extracts ([1]; human hepatocytes Hu775, 10 μM [^14C]-Compound 1, 0 h): 0 pmol/million cells | 2′-C-methyl guanosine nucleotide levels in cellular extracts ([1]; human hepatocytes Hu775, 10 μM [^14C]-Compound 1, 1 h): 7.10 pmol/million cells | 2′-C-methyl guanosine nucleotide levels in cellular extracts ([1]; human hepatocytes Hu775, 10 μM [^14C]-Compound 1, 4 h): 38.4 pmol/million cells | 2′-C-methyl guanosine nucleotide levels in cellular extracts ([1]; human hepatocytes Hu775, 10 μM [^14C]-Compound 1, 8 h): 55 pmol/million cells | 2′-C-methyl guanosine nucleotide levels in cellular extracts ([1]; human hepatocytes Hu775, 10 μM [^14C]-Compound 1, 24 h): 161 pmol/million cells | metabolites observed in cellular extracts (% of total radioactivity) ([2]; monkey hepatocytes (Cy230, Cy234), 10 μM [^14C]-Compound 1, 1 h): 9.25% and 9.65% | metabolites observed in cellular extracts (% of total radioactivity) ([2]; monkey hepatocytes (Cy230, Cy234), 10 μM [^14C]-Compound 1, 8 h): 13.8% and 14.9% | metabolites observed in cellular extracts (% of total radioactivity) ([2]; monkey hepatocytes (Cy230, Cy234), 10 μM [^14C]-Compound 1, 24 h): 18.5% and 16.0% | 2′-C-methyl guanosine nucleotide levels in cellular extracts [2, 9]: 44.5 pmol/million cells | metabolites observed in cellular extracts (% of total radioactivity) [2, 9]: 17.1% | 2′-C-methyl guanosine nucleotide levels in cellular extracts ([2]; monkey hepatocytes Cy230, 10 μM [^14C]-2′-C-methyl guanosine, 0 h): 0 pmol/million cells | 2′-C-methyl guanosine nucleotide levels in cellular extracts [2, 10]: BLD (BLD = below limit of detection (0.02 pmol/million cells)) | Major metabolites observed in cellular extracts (% of total radioactivity) [2, 10]: BLD (BLD = below limit of detection (30 DPM)) | 2′-C-methyl guanosine nucleotide levels in cellular extracts [2, 11]: 2.07 pmol/million cells | Major metabolites observed in cellular extracts (% of total radioactivity) [2, 11]: 2.82 % of total radioactivity | 2′-C-methyl guanosine nucleotide levels in cellular extracts [2, 12]: 2.16 pmol/million cells | Major metabolites observed in cellular extracts (% of total radioactivity) [2, 12]: 8.41 % of total radioactivity | 2′-C-methyl guanosine nucleotide levels in cellular extracts ([2]; monkey hepatocytes Cy230, 10 μM [^14C]-Compound 1, 0 h): 0 pmol/million cells | 2′-C-methyl guanosine nucleotide levels in cellular extracts ([2]; monkey hepatocytes Cy230, 10 μM [^14C]-Compound 1, 1 h): 26.3 pmol/million cells | 2′-C-methyl guanosine nucleotide levels in cellular extracts ([2]; monkey hepatocytes Cy230, 10 μM [^14C]-Compound 1, 8 h): 153 pmol/million cells | 2′-C-methyl guanosine nucleotide levels in cellular extracts ([2]; monkey hepatocytes Cy230, 10 μM [^14C]-Compound 1, 24 h): 88.4 pmol/million cells | 2′-C-methyl guanosine nucleotide levels in cellular extracts ([2]; monkey hepatocytes Cy234, 10 μM [^14C]-2′-C-methyl guanosine, 0 h): 0 pmol/million cells | 2′-C-methyl guanosine nucleotide levels in cellular extracts [2, 13]: 0.95 pmol/million cells | Major metabolites observed in cellular extracts (% of total radioactivity) [2, 13]: 2.19 % of total radioactivity | 2′-C-methyl guanosine nucleotide levels in cellular extracts [2, 14]: 5.30 pmol/million cells | Major metabolites observed in cellular extracts (% of total radioactivity) [2, 14]: 6.51 % of total radioactivity | 2′-C-methyl guanosine nucleotide levels in cellular extracts [2, 15]: 7.00 pmol/million cells | Major metabolites observed in cellular extracts (% of total radioactivity) [2, 15]: 7.90 % of total radioactivity | 2′-C-methyl guanosine nucleotide levels in cellular extracts [2, 16]: 15.0 pmol/million cells | Major metabolites observed in cellular extracts (% of total radioactivity) [2, 16]: 14.1 % of total radioactivity | 2′-C-methyl guanosine nucleotide levels in cellular extracts ([2]; monkey hepatocytes Cy234, 10 μM [^14C]-Compound 1, 0 h): 0 pmol/million cells | 2′-C-methyl guanosine nucleotide levels in cellular extracts ([2]; monkey hepatocytes Cy234, 10 μM [^14C]-Compound 1, 1 h): 6.10 pmol/million cells | 2′-C-methyl guanosine nucleotide levels in cellular extracts ([2]; monkey hepatocytes Cy234, 10 μM [^14C]-Compound 1, 8 h): 91.0 pmol/million cells | 2′-C-methyl guanosine nucleotide levels in cellular extracts ([2]; monkey hepatocytes Cy234, 10 μM [^14C]-Compound 1, 24 h): 111 pmol/million cells
